Data published in ChEMBL document CHEMBL1201862, “PubChem BioAssay data set” (2004).
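48-hour exposure; five concentrations; linearly interpolated endpoints. GI50: concentration for 50% inhibition of growth.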 The source made the active and inactive calls. Cut-off read from the data, not from the text of the source: active = GI50 up to about 1.1 µM and inactive = higher. Peptide text beside a SMILES is read from it. * marks the point of attachment. Boc = CC(C)(C)OC(=O)*

Tests used:
Assay in all cases: NCI tumour cell line growth inhibition, 48 h
Hs-578T = system: Hs-578T
SN12C = system: SN12C
UACC-62 = system: UACC-62
UACC-257 = system: UACC-257
SK-MEL-2 = system: SK-MEL-2
NCI-H23 = system: NCI-H23
A498 = system: A498
HCT-116 = system: HCT-116
RPMI-8226 = system: RPMI-8226
NCI/ADR-RES = system: NCI/ADR-RES
HL-60 = system: HL-60
BT-549 = system: BT-549
HOP-62 = system: HOP-62
MOLT-4 = system: MOLT-4
T47D = system: T47D
OVCAR-8 = system: OVCAR-8
Malme-3M = system: Malme-3M
MDA-N = system: MDA-N
SK-MEL-5 = system: SK-MEL-5
HOP-92 = system: HOP-92

Measured: GI50

O=C(O)c1cccc(Nc2c(C(=O)O)cccc2[N+](=O)[O-])c1
inactive: Hs-578T > 100 µM | SN12C > 100 µM | UACC-62 > 100 µM | UACC-257 > 100 µM | SK-MEL-2 > 100 µM | NCI-H23 > 100 µM | A498 > 100 µM | HCT-116 > 100 µM | RPMI-8226 > 100 µM | NCI/ADR-RES > 100 µM | HL-60 > 100 µM | BT-549 > 100 µM | HOP-62 > 100 µM | MOLT-4 > 100 µM | T47D > 100 µM | OVCAR-8 > 100 µM | Malme-3M 38.5 µM | MDA-N > 100 µM | SK-MEL-5 > 100 µM | HOP-92 > 100 µM

CCOC(=O)C(=O)C(/C(=N/N(C)C)C(=O)Nc1ccc(C)cc1C)c1nc2ccccc2nc1O (stereo not given)
inactive: Hs-578T > 100 µM | SN12C > 100 µM | UACC-62 > 100 µM | UACC-257 > 100 µM | SK-MEL-2 > 100 µM | NCI-H23 > 100 µM | A498 > 100 µM | HCT-116 > 100 µM | RPMI-8226 > 100 µM | NCI/ADR-RES > 100 µM | HL-60 > 100 µM | BT-549 > 100 µM | HOP-62 > 100 µM | MOLT-4 > 100 µM | T47D > 100 µM | OVCAR-8 > 100 µM | Malme-3M > 100 µM | MDA-N > 100 µM | SK-MEL-5 > 100 µM | HOP-92 > 100 µM

O=C1/C(=C/C=C/c2ccccc2)N=C(c2ccccc2)N1c1ccc(S(=O)(=O)Nc2nccs2)cc1
inactive: Hs-578T 37.8 µM | SN12C 30 µM | UACC-62 18.2 µM | UACC-257 34.6 µM | SK-MEL-2 25.1 µM | NCI-H23 21.3 µM | A498 32.1 µM | HCT-116 29.6 µM | RPMI-8226 21.9 µM | NCI/ADR-RES > 100 µM | HL-60 46.1 µM | BT-549 19.8 µM | HOP-62 39.3 µM | MOLT-4 50.1 µM | T47D 27.6 µM | OVCAR-8 29.3 µM | Malme-3M 32.7 µM | MDA-N 27.7 µM | SK-MEL-5 20.6 µM | HOP-92 45.9 µM

COCN1CCN=c2c1c1c3c(c4ccccc4n23)CCC1
inactive: Hs-578T > 100 µM | SN12C > 100 µM | UACC-62 > 100 µM | UACC-257 > 100 µM | SK-MEL-2 > 100 µM | NCI-H23 > 100 µM | A498 > 100 µM | HCT-116 > 100 µM | RPMI-8226 > 100 µM | NCI/ADR-RES > 100 µM | HL-60 > 100 µM | BT-549 > 100 µM | HOP-62 > 100 µM | MOLT-4 > 100 µM | T47D > 100 µM | OVCAR-8 > 100 µM | Malme-3M > 100 µM | MDA-N > 100 µM | SK-MEL-5 > 100 µM | HOP-92 > 100 µM

CCOC(=O)c1nc2cc(F)c(N3CCOCC3)cc2[nH]c1=O
inactive: Hs-578T 56.1 µM | SN12C > 100 µM | UACC-62 > 100 µM | UACC-257 > 100 µM | SK-MEL-2 > 100 µM | NCI-H23 > 100 µM | A498 > 100 µM | HCT-116 > 100 µM | RPMI-8226 > 100 µM | NCI/ADR-RES > 100 µM | HL-60 47.5 µM | BT-549 > 100 µM | HOP-62 > 100 µM | MOLT-4 > 100 µM | T47D > 100 µM | OVCAR-8 > 100 µM | Malme-3M > 100 µM | MDA-N > 100 µM | SK-MEL-5 > 100 µM | HOP-92 > 100 µM

C#CC1(O)CCC2[C@@H]3CCc4cc(Oc5nc(F)nc(-c6c(C)c(C(=O)OCC)n7ccccc67)n5)ccc4C3CC[C@@]21C (stereo not given in full)
inactive: Hs-578T > 100 µM | SN12C > 100 µM | UACC-62 > 100 µM | UACC-257 > 100 µM | SK-MEL-2 > 100 µM | NCI-H23 > 100 µM | A498 > 100 µM | HCT-116 > 100 µM | RPMI-8226 > 100 µM | NCI/ADR-RES > 100 µM | HL-60 > 100 µM | BT-549 > 100 µM | HOP-62 > 100 µM | MOLT-4 > 100 µM | T47D > 100 µM | OVCAR-8 > 100 µM | Malme-3M > 100 µM | MDA-N > 100 µM | SK-MEL-5 > 100 µM | HOP-92 > 100 µM

c1csc(-c2ccc(-c3ccsc3)s2)c1
inactive: Hs-578T 98.4 µM | SN12C > 100 µM | UACC-62 > 100 µM | UACC-257 > 100 µM | SK-MEL-2 > 100 µM | NCI-H23 > 100 µM | A498 > 100 µM | HCT-116 > 100 µM | RPMI-8226 > 100 µM | NCI/ADR-RES > 100 µM | HL-60 > 100 µM | BT-549 > 100 µM | HOP-62 > 100 µM | MOLT-4 > 100 µM | T47D > 27.4 µM | OVCAR-8 > 100 µM | Malme-3M > 100 µM | MDA-N > 100 µM | SK-MEL-5 > 100 µM | HOP-92 > 100 µM

COC(=O)C(Cc1ccccc1)NC(=O)C(CS)NC(=O)OC(C)(C)C (stereo not drawn) (Boc-Cys-Phe-OMe; configuration not given here)
inactive: Hs-578T > 100 µM | SN12C > 100 µM | UACC-62 > 100 µM | UACC-257 > 100 µM | SK-MEL-2 > 100 µM | NCI-H23 > 100 µM | A498 > 100 µM | HCT-116 41.9 µM | RPMI-8226 > 100 µM | NCI/ADR-RES > 100 µM | HL-60 27.7 µM | BT-549 > 100 µM | HOP-62 > 100 µM | MOLT-4 8.55 µM | T47D > 100 µM | OVCAR-8 > 100 µM | Malme-3M > 100 µM | MDA-N > 100 µM | SK-MEL-5 > 100 µM | HOP-92 > 100 µM

CSc1ccc(/C=C2\N=C(c3ccccc3)N(c3nc4ccc(Sc5ccccc5)cc4[nH]3)C2=O)cc1
inactive: Hs-578T 18.6 µM | SN12C 21.7 µM | UACC-62 14.2 µM | UACC-257 13.9 µM | SK-MEL-2 13 µM | NCI-H23 26.3 µM | A498 18.2 µM | HCT-116 14.7 µM | RPMI-8226 20.2 µM | NCI/ADR-RES 19.4 µM | HL-60 14.2 µM | BT-549 18.3 µM | HOP-62 17.2 µM | MOLT-4 22.3 µM | T47D 20.5 µM | OVCAR-8 28.2 µM | Malme-3M 16.6 µM | MDA-N 3.37 µM | SK-MEL-5 13.3 µM | HOP-92 33.6 µM

Cc1cccc2c1CC(C1OC(=O)c3c(C)cccc31)C2=O (stereo not given)
inactive: Hs-578T > 100 µM | SN12C > 100 µM | UACC-62 > 100 µM | UACC-257 > 100 µM | SK-MEL-2 > 100 µM | NCI-H23 > 100 µM | A498 > 100 µM | HCT-116 > 100 µM | RPMI-8226 88.5 µM | NCI/ADR-RES > 100 µM | HL-60 > 100 µM | BT-549 > 100 µM | HOP-62 > 100 µM | MOLT-4 > 100 µM | T47D > 100 µM | OVCAR-8 > 100 µM | Malme-3M > 100 µM | MDA-N > 100 µM | SK-MEL-5 > 100 µM | HOP-92 > 100 µM

O=C1CCC2C(O)c3cc4c(cc3C(c3ccc5c(c3)OCO5)N12)OCO4 (stereo not given)
inactive: Hs-578T 24.4 µM | SN12C 76 µM | UACC-62 > 100 µM | UACC-257 > 100 µM | SK-MEL-2 > 100 µM | NCI-H23 > 100 µM | A498 > 100 µM | HCT-116 > 100 µM | RPMI-8226 > 100 µM | NCI/ADR-RES 94 µM | HL-60 > 100 µM | BT-549 47.6 µM | HOP-62 25 µM | MOLT-4 > 100 µM | T47D > 100 µM | OVCAR-8 35.6 µM | Malme-3M > 100 µM | MDA-N > 100 µM | SK-MEL-5 > 100 µM | HOP-92 35.2 µM

O=c1[nH]cnc2c1ncn2[C@@H]1C[C@@H]1CO
inactive: Hs-578T 6.22 µM | SN12C > 100 µM | UACC-62 > 100 µM | UACC-257 > 100 µM | SK-MEL-2 > 100 µM | NCI-H23 > 100 µM | A498 > 10 µM | HCT-116 > 100 µM | RPMI-8226 > 10 µM | NCI/ADR-RES > 100 µM | HL-60 > 100 µM | BT-549 > 100 µM | HOP-62 > 100 µM | MOLT-4 > 100 µM | T47D > 100 µM | OVCAR-8 > 100 µM | Malme-3M > 100 µM | MDA-N > 100 µM | SK-MEL-5 > 100 µM | HOP-92 > 100 µM

CC(C)(Oc1ccc(-c2cccc3ccccc23)cc1)C(=O)O
inactive: Hs-578T > 100 µM | SN12C 85.1 µM | UACC-62 > 100 µM | UACC-257 > 100 µM | SK-MEL-2 > 100 µM | NCI-H23 > 100 µM | A498 > 100 µM | HCT-116 > 100 µM | RPMI-8226 > 100 µM | NCI/ADR-RES > 100 µM | HL-60 3.86 µM | BT-549 > 100 µM | HOP-62 > 100 µM | MOLT-4 > 100 µM | T47D 80.2 µM | OVCAR-8 > 100 µM | Malme-3M > 100 µM | MDA-N > 100 µM | SK-MEL-5 99.5 µM | HOP-92 > 100 µM
